pKd: −log10 of the molar value.
target: CRBN truncate (318-426) (Homo sapiens (Human), UniProt Q96SW2); experiment: Measurement of molecular interactions using surface plasmon resonance (SPR), Biacore T200; type: binding; details: 25° C., immobilized CRBN truncate, upper limit of measurement 200 μM
Procedure, shortened: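 Compound injections used 60 s association and 120 s dissociation in HEPES pH 7.5 buffer (150 mM NaCl, 1 mM TCEP, 0.005% Tween 20, 2% DMSO). The ligand was CRBN truncate 318-426 bearing a C-terminal Avi-tag, immobilised via streptavidin on an SA sensor chip.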

Chain of CRBN truncate (318-426) (Q96SW2 318-426): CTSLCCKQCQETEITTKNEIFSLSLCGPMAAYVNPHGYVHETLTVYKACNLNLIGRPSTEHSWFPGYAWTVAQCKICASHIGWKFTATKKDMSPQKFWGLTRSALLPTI

pKd | Compound
≤ 4.00 | O=C1CCCC2(CCN(C(=O)c3nc4ccccc4o3)C2)C(=O)N1 (stereo not drawn) [Example 154, 2-(1,3-Benzoxazole-2-carbonyl)-2,7-diazaspiro[4.6]undecane-6,8-dione]
≤ 4.00 | O=C1COCC2(CCN(C(=O)c3ccccc3)CC2)C(=O)N1 [Example 13-2, 3-benzoyl-8-oxa-3,11-diazaspiro[5.6]dodecane-10,12-dione]
≤ 4.00 | CC(C)(C)OC(=O)N1CCc2c(ncnc2N2CCC3(CCCC(=O)NC3=O)C2)C1 (stereo not drawn) [Example 190, tert-Butyl 4-(6,8-dioxo-2,7-diazaspiro[4.6]undecan-2-yl)-6,8-dihydro-5H-pyrido[3,4-d]pyrimidine-7-carboxylate]
> 4.30 | Cc1sc2c(c1C)C(c1ccc(Cl)cc1)=N[C@@H](CC(=O)NCCCCCCCCNC(=O)CCc1cccc3c(=O)n(C4CCCC(=O)NC4=O)ccc13)c1nnc(C)n1-2 (stereo partly drawn) [Example 343, N-[8-[[2-[(9S)-7-(4-chlorophenyl)-4,5,13-trimethyl-3-thia-1,8,11,12-tetraazatricyclo[8.3.0.02,6]trideca-2(6),4,7,10,12-pentaen-9-yl]acetyl]amino]octyl]-3-[2-(2,7-dioxoazepan-3-yl)-1-oxoisoquinolin-5-yl]propanamide]
> 4.30 | Cc1sc2c(c1C)C(c1ccc(Cl)cc1)=N[C@@H](CC(=O)NCCCCCCCCCCC(=O)N1CCc3c(ncnc3N3CC4(CC(=O)N(C5CCC(=O)NC5=O)C4=O)C3)C1)c1nnc(C)n1-2 (stereo partly drawn) [Example 357, 2-[(9S)-7-(4-chlorophenyl)-4,5,13-trimethyl-3-thia-1,8,11,12-tetraazatricyclo[8.3.0.02,6]trideca-2(6),4,7,10,12-pentaen-9-yl]-N-[11-[4-[6-(2,6-dioxo-3-piperidyl)-5,7-dioxo-2,6-diazaspiro[3.4]octan-2-yl]-6,8-dihydro-5H-pyrido[3,4-d]pyrimidin-7-yl]-11-oxo-undecyl]acetamide]
≤ 4.00 | CC(C)(C)OC(=O)NCCn1c(=O)n(C2CCCC(=O)NC2=O)c2ccccc21 (stereo not drawn) [Example 197, tert-Butyl N-[2-[3-(2,7-dioxoazepan-3-yl)-2-oxobenzimidazol-1-yl]ethyl]carbamate]
4.00 to 4.30 | Cc1sc2c(c1C)C(c1ccc(Cl)cc1)=N[C@@H](CC(=O)NCCCCCCCCCCC(=O)N1CCC(c3cccc(NC45CCC(CC4)C(=O)NC5=O)c3)CC1)c1nnc(C)n1-2 [Example 355, 2-[(9S)-7-(4-chlorophenyl)-4,5,13-trimethyl-3-thia-1,8,11,12-tetraazatricyclo[8.3.0.02,6]trideca-2(6),4,7,10,12-pentaen-9-yl]-N-[11-[4-[3-[(2,4-dioxo-3-azabicyclo[3.2.2]nonan-1-yl)amino]phenyl]piperidin-1-yl]-11-oxoundecyl]acetamide]
≤ 4.00 | COc1cccc2sc(N3CC4(CC(=O)N(C5CCC(=O)NC5=O)C4=O)C3)nc12 (stereo not drawn) [Example 240, 6-(2,6-Dioxopiperidin-3-yl)-2-(4-methoxy-1,3-benzothiazol-2-yl)-2,6-diazaspiro[3.4]octane-5,7-dione]
≤ 4.00 | O=C1CCOC(c2ccccc2)C(=O)N1 (stereo not drawn) [Example 18, 2-Phenyl-1,4-oxazepane-3,5-dione]
≤ 4.00 | Cn1ccc2c(C(=O)N3CCC4(CCCC(=O)NC4=O)C3)cccc21 (stereo not drawn) [Example 151, 2-(1-Methylindole-4-carbonyl)-2,7-diazaspiro [4.6]undecane-6,8-dione]
≤ 4.00 | Cc1ccc(NC(=O)NCCCn2c(=O)n(C3CCCC(=O)NC3=O)c3ccccc32)cc1Cl (stereo not drawn) [Example 202, 1-(3-Chloro-4-methylphenyl)-3-[3-[3-(2,7-dioxoazepan-3-yl)-2-oxobenzimidazol-1-yl]propyl]urea]
≤ 4.00 | CC(C)(C)OC(=O)c1ccc(N2CCC3(CCCC(=O)NC3=O)C2)nn1 (stereo not drawn) [Example 184, tert-Butyl 6-(6,8-dioxo-2,7-diazaspiro[4.6]undecan-2-yl)pyridazine-3-carboxylate]
> 4.30 | O=C1CCCN(c2nc3ccc([N+](=O)[O-])cc3s2)C(=O)N1 [Example 116, 1-(6-Nitro-1,3-benzothiazol-2-yl)-1,3-diazepane-2,4-dione]
≤ 4.00 | CC(C)(C)OC(=O)NCc1cn(C2CCCC(=O)NC2=O)nn1 (stereo not drawn) [Example 1, tert-Butyl N-[[1-(2,7-dioxoazepan-3-yl)triazol-4-yl]methyl]carbamate]
> 4.30 | Cc1sc2c(c1C)C(c1ccc(Cl)cc1)=N[C@@H](CC(=O)NCCCCCCCCNC(=O)CCc1ccc3c(c1)oc(=O)n3C1CCCC(=O)NC1=O)c1nnc(C)n1-2 (stereo partly drawn) [Example 341, N-[8-[[2-[(9S)-7-(4-chlorophenyl)-4,5,13-trimethyl-3-thia-1,8,11,12-tetraazatricyclo[8.3.0.02,6]trideca-2(6),4,7,10,12-pentaen-9-yl]acetyl]amino]octyl]-3-[3-(2,7-dioxoazepan-3-yl)-2-oxo-1,3-benzoxazol-6-yl]propanamide]
≤ 4.00 | CC(C)(C)OC(=O)COc1cccc(C(=O)NC2CCCC(=O)NC2=O)c1F (stereo not drawn) [Example 67, tert-Butyl 2-[3-[(2,7-dioxoazepan-3-yl)carbamoyl]-2-fluorophenoxy]acetate]
> 4.30 | Cc1sc2c(c1C)C(c1ccc(Cl)cc1)=N[C@@H](CC(=O)NCCCCCCCCNC(=O)CCc1ccc3c(=O)n(C4CCCC(=O)NC4=O)c(=O)n(C)c3c1)c1nnc(C)n1-2 (stereo partly drawn) [Example 344, N-[8-[[2-[(9S)-7-(4-chlorophenyl)-4,5,13-trimethyl-3-thia-1,8,11,12-tetraazatricyclo[8.3.0.02,6]trideca-2(6),4,7,10,12-pentaen-9-yl]acetyl]amino]octyl]-3-[3-(2,7-dioxoazepan-3-yl)-1-methyl-2,4-dioxo-quinazolin-7-yl]propanamide]
≤ 4.00 | CC(C)(C)OC(=O)c1ccc(N2CCC3(CC=CC(=O)NC3=O)C2)nc1 (stereo not drawn) [Example 131, tert-Butyl 6-(6,8-dioxo-2,7-diazaspiro [4.6]undec-9-en-2-yl) pyridine-3-carboxylate]
≤ 4.00 | CN(C1CCCC(=O)NC1=O)S(=O)(=O)c1ccc(Cl)cc1 (stereo not drawn) [Example 7, 4-Chloro-N-(2,7-dioxoazepan-3-yl)-N-methylbenzenesulfonamide]
≤ 4.00 | CC(C)(C)OC(=O)N1CCN(c2ccnc(N3CCC4(CCCC(=O)NC4=O)C3)c2)CC1 (stereo not drawn) [Example 126, tert-Butyl 4-[2-(6,8-dioxo-2,7-diazaspiro [4.6]undecan-2-yl)-4-pyridyl]piperazine-1-carboxylate]
≤ 4.00 | O=C1CCCC2(CCN(c3ncc(Br)cn3)C2)C(=O)N1 (stereo not drawn) [Example 127, 2-(5-Bromopyrimidin-2-yl)-2,7-diazaspiro [4.6]undecane-6,8-dione]
≤ 4.00 | CCOC(=O)c1ccc2nc(N3CC4(CC(=O)N(C5CCCC(=O)NC5=O)C4=O)C3)sc2c1 (stereo not drawn) [Example 273-2, Ethyl 2-[6-(2,7-dioxoazepan-3-yl)-5,7-dioxo-2,6-diazaspiro [3.4]octan-2-yl]-1,3-benzothiazole-6-carboxylate]
≤ 4.00 | O=C1CCCC(n2c(=O)ccc3cc(Br)ccc32)C(=O)N1 (stereo not drawn) [Example 257, 3-(6-Bromo-2-oxoquinolin-1-yl)azepane-2,7-dione]
4.00 to 4.30 | Cc1cc([N+](=O)[O-])ccc1N1CCC2(CCCC(=O)NC2=O)C1 (stereo not drawn) [Example 82, 2-(2-Methyl-4-nitrophenyl)-2,7-diazaspiro[4.6]undecane-6,8-dione]

Reference: patent publication US20250388593A1 (MITSUBISHI TANABE PHARMA CORPORATION, priority 2023, published 2025)
